“And” between values parts separate entries of the source, which are not always exact repeats. Identical values can stand only once. The source made the active and inactive calls. No rule for the calls is given here.

This test relates to in vivo angiogenesis, blood vessel count. The test is described as follows: angiogenesis inhibition in living animals, in vivo study, HTS (AID 732).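 Also: zebrafish embryos dosed at one day post fertilization; 0% = reference inhibitor and 100% = plate mean.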 The note with it: hits give low values;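 tested at 30 µM in the well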.
Take `NC(=O)c1ccc(OCC(O)CN2CC=C(c3ccc(F)cc3)CC2)cc1` (stereo not given): the vessel count % control is 79.7% (inactive).
For the compound `O=C(O)/C=C/C(O)c1ccc(Cl)cc1` (stereo not given), the vessel count % control is 115% (inactive).
To `CC(=O)O[C@H]1CC2(C)[C@@H](C[C@@H](O)[C@H]3[C@@]4(C)CC[C@@H](O)[C@@H](C)[C@@H]4CC[C@@]32C)C1=C(CCC=C(C)C)C(=O)O` (stereo not given in full) belongs 100% (inactive); to `CCOC(=O)C(C)(C)Oc1ccc(Cl)cc1`, 55.4% (inactive); to `CN=C(NC#N)NCCSCc1nc[nH]c1C`, 112% (inactive).
On to `CCC(C)N(C)C(=O)c1cc2ccccc2c(-c2ccccc2Cl)n1` (stereo not given), for which the vessel count % control was 102% (inactive).
For `Cc1nc2sccn2c(=O)c1CCN1CCC(=C(c2ccc(F)cc2)c2ccc(F)cc2)CC1`, the vessel count % control is 68.8% (inactive).
Take `O=Nc1c(-c2c(O)[nH]c3ccccc23)[nH]c2ccc(Br)cc12`: the vessel count % control was 67.5% (inactive).
As to `COc1ccc2c(c1)c(CC(=O)O)c(C)n2C(=O)c1ccc(Cl)cc1`, the vessel count % control was 112% (inactive).
Under `CCCn1c(=O)[nH]c(=O)c2[nH]cnc21` stands 97.5% (inactive); under `O=C(N[C@@H](Cc1ccccc1)C(=O)CCl)OCc1ccccc1`, 0% (inactive).
`CCCCCCCCCC(=O)NC(CN1CCOCC1)[C@H](O)c1ccccc1` (stereo not given in full): the vessel count % control was 74% (inactive).
Turning to `CC(/C=C/c1cccc(Oc2ccc(F)cc2)c1)N(O)C(N)=O` (stereo not given), the vessel count % control is 100% (inactive).
`CC(=O)[C@H]1CC[C@H]2[C@@H]3CCC4=CC(=O)CC[C@]4(C)[C@H]3CC[C@]12C`: the vessel count % control was 102% (inactive).
For `CCCCc1ccc(C(=O)O)nc1`, the vessel count % control was 115% (inactive).
Under `NCC(O)c1ccc(O)c(O)c1` (stereo not given) stands 108% (inactive); under `CN1[C@@H](CC(=O)c2ccccc2)CCC[C@H]1C[C@H](O)c1ccccc1`, 107% (inactive).
Take `NC1(C(=O)O)CCc2cc(C(=O)O)ccc21` (stereo not given): the vessel count % control is 79.6% (inactive).
For the compound `CC(=O)N[C@@H](CS)C(=O)O`, the vessel count % control was 96.5% (inactive).
Under `CN1CCc2ccccc2Cc2[nH]c3ccccc3c2CC1` stands 66.8% (inactive); under `C/C=C1\C(=O)CC2C3CCC4=CC(=O)CC[C@]4(C)C3CC[C@]12C` (stereo not given in full), 102% (inactive).
To `CN[C@H](CC(C)C)C(=O)N[C@H]1C(=O)N[C@@H](CC(N)=O)C(=O)N[C@H]2C(=O)N[C@H]3C(=O)N[C@H](C(=O)N[C@H](C(=O)O)c4cc(O)cc(O)c4-c4cc3ccc4O)[C@H](O)c3ccc(c(Cl)c3)Oc3cc2cc(c3O[C@@H]2O[C@H](CO)[C@@H](O)[C@H](O)[C@H]2O[C@H]2C[C@](C)(N)[C@H](O)[C@H](C)O2)Oc2ccc(cc2Cl)[C@H]1O` belongs 103% (inactive).
Consider `O=C(NCC1CCCCN1)c1cc(OCC(F)(F)F)ccc1OCC(F)(F)F` (stereo not given), for which the vessel count % control was 127% (inactive).
With `Oc1ccc(-c2nc(-c3ccc(F)cc3)c(-c3ccncc3)[nH]2)cc1`, the vessel count % control is 97.9% (inactive).
Under `COc1ccc(CCN(C)CCCC(C#N)(c2ccc(OC)c(OC)c2)C(C)C)cc1OC` (stereo not given) stands 118% (inactive); under `CC(Cc1ccc(O)cc1)NCC(O)c1cc(O)cc(O)c1` (stereo not given), 114% (inactive); under `Cc1cnc(NC(=O)C2=C(O)c3ccccc3S(=O)(=O)N2C)s1`, 136% (inactive).
With `CCc1c(C(=O)OC)ncc2[nH]c3cc(OC)c(OC)cc3c12`, the vessel count % control was 129% (inactive).
`O=c1n(CCCN2CCN(c3cccc(Cl)c3)CC2)nc2ccccn12`: the vessel count % control was 88% (inactive).
To `CC1C(=O)N(C)C(=O)c2nc[nH]c21` (stereo not given) belongs 98.5% (inactive).
Regarding `CCCn1c(=O)c2c(ncn2C)n(CCC)c1=O`, the vessel count % control is 98.7% (inactive).
For `CN(C)c1ccc(/C=C2\C(=O)Nc3ccccc32)cc1`, the vessel count % control was 36.7%.
For `CN1C(C)(C)CCCC1(C)C`, the vessel count % control is 106% (inactive).
For the compound `O=c1[nH]cc(F)c(=O)[nH]1`, the vessel count % control was 111% (inactive).
As to `CC(=O)OCC(=O)[C@@]1(O)CC[C@H]2[C@@H]3CCC4=CC(=O)CC[C@]4(C)[C@H]3C(=O)C[C@@]21C`, the vessel count % control was 97.3% (inactive).
To `CCN(c1nc(N)c(C(=O)N=C(N)N)nc1Cl)C(C)C` belongs 73.9% (inactive); to `CCCCCCCC/C=C\CCCCCCCC(=O)NCCO`, 102% (inactive); to `N[C@@H](Cc1ccc(F)cc1)C(=O)O`, 108% (inactive).
Turning to `Nc1nc(Nc2ccccc2)nc2c1ncn2[C@@H]1O[C@H](CO)[C@H](O)C1O` (stereo not given in full), the vessel count % control is 94.3% (inactive).
As for `CNC[C@H](O)c1ccc(O)c(O)c1`, the vessel count % control is 94% (inactive).
For `O[Si](CCCN1CCCCC1)(c1ccc(F)cc1)C1CCCCC1` (stereo not given), the vessel count % control was 107% (inactive).
Regarding `COc1cc(C(=O)OCCCN2CCCN(CCCOC(=O)c3cc(OC)c(OC)c(OC)c3)CC2)cc(OC)c1OC`, the vessel count % control is 116% (inactive).
Under `CC(C)=CCC/C(C)=C/CC/C(C)=C/CSc1ccccc1C(=O)O` stands 78.4% (inactive).
As for `CCCN1CCc2cc(O)cc3c2[C@H]1Cc1ccc(O)c(O)c1-3`, the vessel count % control was 114% (inactive).
Take `NC(=O)OCC(COC(N)=O)c1ccccc1`: the vessel count % control is 62.7% (inactive).
Under `COc1ccc2[nH]c(I)c(CCNC(C)=O)c2c1` stands 107% (inactive).
With `CCS(=O)(=O)Nc1cccc(C(=C2CCCCC2)c2cnc[nH]2)c1`, the vessel count % control was 98.4% (inactive).
With `O=c1c(-c2ccc(O)cc2)coc2cc(O)ccc12`, the vessel count % control was 105% (inactive).
In the case of `CCCOc1ccccc1-c1nc2n[nH]nc2c(=O)[nH]1`, the vessel count % control was 119% (inactive).
Under `O=C(O)CN(CCN(CC(=O)O)CC(=O)O)CCN(CC(=O)O)CC(=O)O` stands 0% (inactive); under `Clc1ccc(N2CCN(Cc3c[nH]c4ncccc34)CC2)cc1`, 83.7% (inactive).
Turning to `OCc1cnc[nH]1`, the vessel count % control is 106% (inactive).
For the compound `c1ccc(-c2ccccn2)nc1`, the vessel count % control was 109% (inactive).
On to `CN/C(=C\[N+](=O)[O-])NCCSCc1ccc(CN(C)C)o1`, for which the vessel count % control was 112% (inactive).
Under `NC1CONC1=O` (stereo not given) stands 117% (inactive); under `COc1ccc(CNC(=O)/C=C/c2ccc3[nH]cc(CCN(C)C)c3c2)cc1`, 75.8% (inactive).
Turning to `NCC1OC(O[C@@H]2[C@H](O)C(OC3C(O)C(N)CC(N)C3OC3OC(CO)C(O)C(O)C3N)O[C@@H]2CO)C(N)C(O)C1O` (stereo not given in full), the vessel count % control is 116% (inactive).
Take `C=CCN1CCc2c(cc(O)c(O)c2Cl)C(c2ccccc2)C1` (stereo not given): the vessel count % control was 121% (inactive).
As for `N=C1Sc2ccccc2C2=NCCCN12`, the vessel count % control was 104% (inactive).
Turning to `CCC1(C2=NCCN2)Cc2ccccc2O1` (stereo not given), the vessel count % control is 68.5% (inactive).
Under `O=P(O)(O)C(Cl)(Cl)P(=O)(O)O` stands 110% (inactive).
As to `Cc1nc(N=Nc2cc(S(=O)(=O)O)c3cc([N+](=O)[O-])cc(S(=O)(=O)O)c3c2)c(COP(=O)(O)O)c(C=O)c1O`, the vessel count % control is 93.5% (inactive).
For the compound `CCCn1c(=O)c2[nH]c(-c3ccc(OCC(=O)Nc4ccc(C#N)cc4)cc3)nc2n(CCC)c1=O`, the vessel count % control was 84.9% (inactive).
In the case of `C[C@@H]1O[C@@H](O[C@H]2C[C@@H](O)[C@]3(CO)[C@@H]4C(CC[C@]3(O)C2)[C@@]2(O)CC[C@H](C3COC(=O)C3)[C@@]2(C)C[C@H]4O)[C@H](O)[C@H](O)[C@H]1O` (stereo not given in full), the vessel count % control was 104% (inactive).
As to `CNCC[C@@H](Oc1ccc(C(F)(F)F)cc1)c1ccccc1`, the vessel count % control is 113% (inactive).
`CCN(CC)C(C)C(=O)N1c2ccccc2Sc2ccccc21` (stereo not given): the vessel count % control is 94.9% (inactive).
With `CC(C)NNC(=O)c1ccncc1`, the vessel count % control was 118% (inactive).
On to `Nc1nc2c(ncn2COC(CO)CO)c(=O)[nH]1`, for which the vessel count % control was 84.5% (inactive).
On to `NN=C(N)N`, for which the vessel count % control was 92.2% (inactive) and 80.5% (inactive).
Regarding `CC(=O)NBr`, the vessel count % control was 130% (inactive).
Turning to `CNc1ncnc2c1ncn2[C@@H]1O[C@H](CO)[C@H](O)C1O` (stereo not given in full), the vessel count % control is 95.4% (inactive).
`CN1CCc2cccc3c2C1Cc1ccc(O)c(O)c1-3` (stereo not given): the vessel count % control was 0% (inactive).
For `N=c1c[n+](N2CCOCC2)[n-]o1`, the vessel count % control was 110% (inactive).
On to `C[C@H]1O[C@@H](n2cc(F)c(=O)[nH]c2=O)[C@H](O)[C@@H]1O`, for which the vessel count % control was 108% (inactive).
With `CC1=NN=C(c2ccc(N)cc2)c2cc3c(cc2C1)OCO3`, the vessel count % control is 96.1% (inactive).
For `O=C1C(c2c(O)[nH]c3ccc(Cl)cc23)=Nc2ccccc21`, the vessel count % control was 87.6% (inactive).
Take `CN(C)CCCN1c2ccccc2Sc2ccc(C(F)(F)F)cc21`: the vessel count % control was 105% (inactive).
Regarding `COc1cccc(-c2cc(=O)c3ccccc3o2)c1N`, the vessel count % control was 73.8% (inactive).
In the case of `CCC(CO)Nc1nc(NCc2ccccc2)c2ncn(C(C)C)c2n1` (stereo not given), the vessel count % control is 82.5% (inactive).
`NC1CCN(c2cccc(Cl)n2)CC1`: the vessel count % control is 91.5% (inactive).
Turning to `Cc1cccc(C)c1OCC(N)C(C)C` (stereo not given), the vessel count % control is 112% (inactive).
Under `COc1ccc2[nH]cc(CCNC(C)=O)c2c1` stands 76.5% (inactive).
In the case of `CNCC(O)c1ccc(O)cc1` (stereo not given), the vessel count % control was 131% (inactive).
For the compound `OC1(c2ccc(Cl)cc2)CCN(Cc2c[nH]c3ccccc23)CC1`, the vessel count % control was 96.6% (inactive).
For `CC(COc1ccccc1)N(CCCl)Cc1ccccc1` (stereo not given), the vessel count % control is 139% (inactive).

The values are drawn from PubChem BioAssay AID732 (Emory University Molecular Libraries Screening Center, 2007).
